In assay [1] the target is Lysine-specific demethylase 5A (Homo sapiens, UniProt P29375). The assay is described as follows: Inhibition of KDM5A (unknown origin) preincubated with enzyme.
The target in assay [2] is Lysine-specific demethylase 5B (Homo sapiens, UniProt Q9UGL1). The assay is described as follows: Inhibition of KDM5B (unknown origin) preincubated with enzyme.
In assay [3] the target is T1, Lysine-specific demethylase 4C (Homo sapiens, UniProt Q9H3R0).
T1 sequence (Q9H3R0 whole entry): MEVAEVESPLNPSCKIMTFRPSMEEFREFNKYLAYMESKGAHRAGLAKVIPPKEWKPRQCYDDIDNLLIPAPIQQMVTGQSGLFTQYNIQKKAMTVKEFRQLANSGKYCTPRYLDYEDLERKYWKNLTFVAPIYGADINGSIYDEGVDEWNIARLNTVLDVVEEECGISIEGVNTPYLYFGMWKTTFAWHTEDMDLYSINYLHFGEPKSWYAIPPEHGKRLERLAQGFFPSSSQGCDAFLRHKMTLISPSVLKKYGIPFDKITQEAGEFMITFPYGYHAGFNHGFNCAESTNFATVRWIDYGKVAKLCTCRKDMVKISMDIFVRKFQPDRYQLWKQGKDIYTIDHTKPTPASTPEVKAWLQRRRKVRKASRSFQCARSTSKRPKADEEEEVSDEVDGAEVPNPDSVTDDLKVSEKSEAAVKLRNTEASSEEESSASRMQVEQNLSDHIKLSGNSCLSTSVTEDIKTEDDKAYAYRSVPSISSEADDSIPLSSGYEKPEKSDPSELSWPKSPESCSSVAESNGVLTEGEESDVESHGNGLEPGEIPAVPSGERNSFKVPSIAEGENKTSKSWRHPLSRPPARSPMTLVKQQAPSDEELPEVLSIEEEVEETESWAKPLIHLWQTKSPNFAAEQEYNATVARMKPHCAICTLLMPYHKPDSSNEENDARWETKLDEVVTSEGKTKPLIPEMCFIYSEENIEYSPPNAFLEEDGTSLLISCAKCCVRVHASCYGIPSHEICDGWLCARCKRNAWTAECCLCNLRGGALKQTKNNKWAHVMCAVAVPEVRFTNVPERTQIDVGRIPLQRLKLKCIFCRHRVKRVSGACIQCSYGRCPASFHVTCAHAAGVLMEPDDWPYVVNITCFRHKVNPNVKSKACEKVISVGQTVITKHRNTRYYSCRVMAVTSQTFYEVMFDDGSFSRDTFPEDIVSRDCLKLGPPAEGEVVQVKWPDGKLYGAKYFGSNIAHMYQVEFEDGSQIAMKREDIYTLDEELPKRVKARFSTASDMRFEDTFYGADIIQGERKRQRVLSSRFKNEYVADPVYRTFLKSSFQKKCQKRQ
The assay is described as follows: Inhibition of KDM4C (unknown origin) preincubated with enzyme.

Assay [4] addresses Lysine-specific demethylase 5A/5B (Homo sapiens, UniProt P29375+Q9UGL1). The assay is described as follows: Inhibition of KDM5A/KDM5B in human ZR-75-1 cells assessed as increase in H3K4me3 level after 72 hrs by fluorometric immunoassay. Type of assay: cell-based.

Chain of Lysine-specific demethylase 5B (Q9UGL1 whole entry): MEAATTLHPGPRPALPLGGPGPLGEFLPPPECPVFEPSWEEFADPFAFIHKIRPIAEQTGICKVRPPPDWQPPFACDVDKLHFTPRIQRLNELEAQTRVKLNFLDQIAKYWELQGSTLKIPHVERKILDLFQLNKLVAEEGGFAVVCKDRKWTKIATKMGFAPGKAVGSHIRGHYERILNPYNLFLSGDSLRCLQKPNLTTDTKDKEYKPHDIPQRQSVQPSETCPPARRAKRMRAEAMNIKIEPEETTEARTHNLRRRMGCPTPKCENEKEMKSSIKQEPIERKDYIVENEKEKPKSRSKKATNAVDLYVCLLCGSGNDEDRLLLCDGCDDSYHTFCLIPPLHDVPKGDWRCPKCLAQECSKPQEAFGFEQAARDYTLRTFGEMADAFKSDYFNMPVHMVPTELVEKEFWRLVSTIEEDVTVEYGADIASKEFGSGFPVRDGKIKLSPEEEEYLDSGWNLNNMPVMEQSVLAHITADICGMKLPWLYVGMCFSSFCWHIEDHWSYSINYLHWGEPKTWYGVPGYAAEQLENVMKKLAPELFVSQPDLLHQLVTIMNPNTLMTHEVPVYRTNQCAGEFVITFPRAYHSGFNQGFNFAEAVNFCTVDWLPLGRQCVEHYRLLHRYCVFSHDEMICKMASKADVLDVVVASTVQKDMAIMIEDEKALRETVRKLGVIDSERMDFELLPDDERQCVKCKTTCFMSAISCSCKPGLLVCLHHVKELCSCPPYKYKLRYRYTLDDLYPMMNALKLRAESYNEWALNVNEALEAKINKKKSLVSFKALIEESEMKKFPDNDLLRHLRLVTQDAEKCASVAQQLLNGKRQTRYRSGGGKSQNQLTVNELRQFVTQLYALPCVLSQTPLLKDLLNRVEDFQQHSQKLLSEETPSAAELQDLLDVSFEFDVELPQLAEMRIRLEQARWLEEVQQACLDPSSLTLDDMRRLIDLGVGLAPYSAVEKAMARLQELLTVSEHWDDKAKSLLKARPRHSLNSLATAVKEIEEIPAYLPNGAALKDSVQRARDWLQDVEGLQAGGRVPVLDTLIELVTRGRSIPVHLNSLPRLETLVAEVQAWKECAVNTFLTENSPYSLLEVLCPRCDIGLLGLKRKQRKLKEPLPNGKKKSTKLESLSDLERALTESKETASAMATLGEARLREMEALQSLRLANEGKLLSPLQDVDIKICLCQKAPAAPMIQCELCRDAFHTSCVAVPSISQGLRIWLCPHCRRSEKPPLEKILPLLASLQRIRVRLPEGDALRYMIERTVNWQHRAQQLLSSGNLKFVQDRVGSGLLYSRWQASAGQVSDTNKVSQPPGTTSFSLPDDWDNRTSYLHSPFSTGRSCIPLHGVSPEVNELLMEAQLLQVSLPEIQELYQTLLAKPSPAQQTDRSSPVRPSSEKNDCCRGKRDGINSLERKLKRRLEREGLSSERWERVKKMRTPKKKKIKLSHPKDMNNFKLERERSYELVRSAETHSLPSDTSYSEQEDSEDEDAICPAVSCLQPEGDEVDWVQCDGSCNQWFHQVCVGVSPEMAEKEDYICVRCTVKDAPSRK
Chain of Lysine-specific demethylase 5A (P29375 whole entry): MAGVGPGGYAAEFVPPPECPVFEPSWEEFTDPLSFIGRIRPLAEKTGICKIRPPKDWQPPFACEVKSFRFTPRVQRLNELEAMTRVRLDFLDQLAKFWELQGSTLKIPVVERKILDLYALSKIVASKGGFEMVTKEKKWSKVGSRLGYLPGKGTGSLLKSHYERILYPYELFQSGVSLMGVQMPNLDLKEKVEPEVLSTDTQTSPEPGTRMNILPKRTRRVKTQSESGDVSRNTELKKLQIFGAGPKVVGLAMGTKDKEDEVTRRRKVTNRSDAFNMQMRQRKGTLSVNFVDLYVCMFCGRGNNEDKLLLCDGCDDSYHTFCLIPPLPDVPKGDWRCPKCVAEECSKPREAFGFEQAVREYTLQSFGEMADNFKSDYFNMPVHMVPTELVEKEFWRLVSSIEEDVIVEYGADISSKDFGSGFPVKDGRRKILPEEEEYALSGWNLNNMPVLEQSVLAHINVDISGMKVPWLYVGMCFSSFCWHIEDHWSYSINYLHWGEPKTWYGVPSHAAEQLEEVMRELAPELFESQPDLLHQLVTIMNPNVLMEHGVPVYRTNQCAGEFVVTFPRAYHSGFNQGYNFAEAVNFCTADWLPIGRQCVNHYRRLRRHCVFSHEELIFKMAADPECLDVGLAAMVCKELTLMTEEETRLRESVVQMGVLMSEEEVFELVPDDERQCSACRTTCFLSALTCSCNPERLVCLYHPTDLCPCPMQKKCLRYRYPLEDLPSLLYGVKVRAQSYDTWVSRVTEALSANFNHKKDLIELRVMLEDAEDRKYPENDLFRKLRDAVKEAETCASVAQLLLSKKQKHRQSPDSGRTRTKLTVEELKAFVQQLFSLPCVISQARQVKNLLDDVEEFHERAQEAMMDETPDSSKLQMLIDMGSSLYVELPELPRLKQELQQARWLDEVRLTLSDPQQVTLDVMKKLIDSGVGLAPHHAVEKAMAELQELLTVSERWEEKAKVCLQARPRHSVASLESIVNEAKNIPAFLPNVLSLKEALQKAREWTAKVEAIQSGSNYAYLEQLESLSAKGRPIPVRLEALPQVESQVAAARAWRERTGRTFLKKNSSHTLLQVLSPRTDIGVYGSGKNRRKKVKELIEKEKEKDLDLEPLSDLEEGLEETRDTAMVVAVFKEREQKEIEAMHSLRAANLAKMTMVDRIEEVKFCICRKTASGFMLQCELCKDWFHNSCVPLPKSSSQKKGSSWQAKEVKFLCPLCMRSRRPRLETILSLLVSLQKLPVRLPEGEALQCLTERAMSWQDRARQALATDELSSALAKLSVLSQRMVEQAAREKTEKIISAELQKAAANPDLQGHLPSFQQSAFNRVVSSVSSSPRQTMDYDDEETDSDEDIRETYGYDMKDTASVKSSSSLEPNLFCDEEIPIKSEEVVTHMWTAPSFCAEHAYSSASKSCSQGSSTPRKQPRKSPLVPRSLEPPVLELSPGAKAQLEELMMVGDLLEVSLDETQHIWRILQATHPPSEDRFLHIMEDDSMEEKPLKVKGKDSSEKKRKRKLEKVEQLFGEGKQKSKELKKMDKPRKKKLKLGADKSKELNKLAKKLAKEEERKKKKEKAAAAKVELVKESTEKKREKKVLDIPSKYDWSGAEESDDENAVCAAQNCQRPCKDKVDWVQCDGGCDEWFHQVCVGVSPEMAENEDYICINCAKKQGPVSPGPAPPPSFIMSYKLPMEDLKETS

For `O=C(O)c1ccnc(-n2nccc2OCc2ccc(C(F)(F)F)cc2)c1`, in assay [1], half-maximal inhibition (IC50) was put at 240 nM.

On to `CC(Oc1ccnn1-c1cc(C(=O)O)ccn1)c1ccc(F)cc1` (stereo unspecified), for which the figures for the IC50 in assay [1], in assay [2] and in assay [3] were 180 nM, 41 nM and 310 nM, respectively.

Consider `O=C(O)c1ccnc(-n2nccc2-c2ccc(O)cc2)c1`, for which the IC50 amounted to 320 nM in assay [2] and 450 nM in assay [3].

In the case of `O=C(O)c1ccnc(-n2nccc2OCc2ccc(Cl)cc2F)c1`, the IC50 in assay [1] stood at 18 nM; in assay [2] it was 4 nM. In addition, in assay [4], the 50% effective concentration (EC50) was determined as 1300 nM.

`O=C(O)c1ccnc(-n2nccc2OCc2ccc(Br)cc2)c1`: the IC50 was determined as 6 nM in assay [1] and 2 nM in assay [2]. For the same compound, the EC50 in assay [4] is 860 nM.

`O=C(O)c1ccnc(-n2nccc2-c2ccc(F)cc2F)c1`: the IC50 in assay [2] came to 170 nM; in assay [3], 380 nM.

Consider `O=C(O)c1ccnc(-n2nccc2-c2ccccc2)c1`, for which the IC50 in assay [2] worked out at 4400 nM; in assay [3] it was 6200 nM.

In the case of `O=C(O)c1ccnc(-n2nccc2OCc2ccc(Cl)cc2OCc2ccccc2)c1`, the IC50 was 32 nM in assay [1], 4 nM in assay [2] and 74 nM in assay [3]. In addition, in assay [4], the EC50 stood at 800 nM.

For `O=C(O)c1ccnc(-n2ncc(CCO)c2OCc2ccc(F)cc2)c1`, the IC50 in assay [1] is 80 nM; in assay [2], 68 nM; in assay [3], above 2000 nM.

Consider `O=C(O)c1ccnc(-n2nccc2-c2cccc(O)c2)c1`, for which the IC50 worked out at 120 nM in assay [2] and 410 nM in assay [3].

On to `O=C(O)c1ccnc(-n2nccc2OCc2ccc(Cl)cc2)c1`, for which the 50% inhibitory concentration (IC50) in assay [1] worked out at 14 nM; in assay [2], 4 nM; in assay [3], 54 nM. Also, the EC50 in assay [4] came out at 420 nM.

As to `COc1ccc(COc2ccnn2-c2cc(C(=O)O)ccn2)cc1`, the IC50 was 1700 nM in assay [1], 4 nM in assay [2] and 68 nM in assay [3].

`O=C(O)c1ccnc(-n2nccc2OCc2ccc(C3CC3)cc2)c1`: the IC50 in assay [1] was found to be 250 nM; in assay [2], 8 nM.

Turning to `N#Cc1ccc(COc2ccnn2-c2cc(C(=O)O)ccn2)cc1`, the IC50 in assay [1] came out at 4 nM; in assay [2], 0.6 nM; in assay [3], 14 nM. In assay [4], the 50% effective concentration (EC50) came to 940 nM.

Turning to `CCc1ccc(COc2ccnn2-c2cc(C(=O)O)ccn2)cc1`, the IC50 came out at 44 nM in assay [1], 3 nM in assay [2] and 3600 nM in assay [3]. In addition, the EC50 in assay [4] stood at 1300 nM.

For the compound `Cc1ccc(-c2ccnn2-c2cc(C(=O)O)ccn2)cc1O`, the IC50 in assay [2] stood at 76 nM; in assay [3] it was 1100 nM.

In the case of `O=C(O)c1ccnc(-n2nccc2-c2ccc(F)cc2)c1`, the IC50 in assay [2] was 240 nM; in assay [3], 490 nM.

Consider `O=C(O)c1ccnc(-n2nccc2OCc2ccc(F)cc2)c1`, for which the results for the IC50 in assay [1], in assay [2] and in assay [3] were 38 nM, 4 nM and 24 nM, respectively. For the same compound, the 50% effective concentration (EC50) in assay [4] came out at 840 nM.

With `CS(=O)(=O)c1ccc(-c2ccnn2-c2cc(C(=O)O)ccn2)cc1`, the IC50 in assay [2] amounted to 350 nM; in assay [3], 2700 nM.

As for `CCOc1cc(Cl)ccc1COc1ccnn1-c1cc(C(=O)O)ccn1`, the results for the IC50 in assay [1], in assay [2] and in assay [3] were 19 nM, 4 nM and 78 nM, respectively. The EC50 in assay [4] was determined as 1000 nM.

Regarding `COc1cc(-c2ccnn2-c2cc(C(=O)O)ccn2)ccc1C`, the IC50 amounted to 540 nM in assay [2] and 1800 nM in assay [3].

Take `Cc1cnn(-c2cc(C(=O)O)ccn2)c1OCc1ccc(F)cc1`: the values for the IC50 in assay [1], in assay [2] and in assay [3] were 77 nM, 54 nM and 2900 nM, respectively.

Turning to `CN(C)CCc1cnn(-c2cc(C(=O)O)ccn2)c1OCc1ccc(F)cc1`, the IC50 is 3 nM in assay [1], 1 nM in assay [2] and 19 nM in assay [3]. In assay [4], the EC50 turned out to be 4600 nM.

For the compound `Cc1ccc(-c2ccnn2-c2cc(C(=O)O)ccn2)cc1`, the IC50 in assay [2] was 200 nM; in assay [3], 1100 nM.

Take `O=C(O)c1ccnc(-n2nccc2OCc2cccc(F)c2)c1`: the IC50 in assay [1] was determined as 430 nM; in assay [2] it was 22 nM. The EC50 in assay [4] amounted to 12000 nM.

`O=C(O)c1ccnc(-n2nccc2OCc2ccccc2F)c1`: the IC50 is 270 nM in assay [1] and 42 nM in assay [2].

In the case of `O=C(O)c1ccnc(-n2nccc2-c2cccc(F)c2)c1`, the IC50 was 500 nM in assay [2] and 660 nM in assay [3].

Regarding `CCc1cnn(-c2cc(C(=O)O)ccn2)c1OCc1ccc(F)cc1`, the IC50 came to 29 nM in assay [1], 24 nM in assay [2] and 260 nM in assay [3].

Take `COc1cc(-c2ccnn2-c2cc(C(=O)O)ccn2)ccc1Cl`: the concentration for half-maximal inhibition (IC50) amounted to 230 nM in assay [2] and 2900 nM in assay [3].

As for `COc1cc(Cl)ccc1COc1ccnn1-c1cc(C(=O)O)ccn1`, the IC50 was 12 nM in assay [1], 1 nM in assay [2] and 38 nM in assay [3]. In addition, in assay [4], the EC50 amounted to 110 nM.

With `O=C(O)c1ccnc(-n2nccc2OCc2ccc(Cl)cc2OCC2CC2)c1`, the results for the IC50 in assay [1], in assay [2] and in assay [3] were 75 nM, 6 nM and 280 nM, respectively.

On to `O=C(O)c1ccnc(-n2nccc2-c2ccc(F)c(F)c2)c1`, for which the IC50 stood at 370 nM in assay [2] and 560 nM in assay [3].

Take `Cc1ccc(COc2ccnn2-c2cc(C(=O)O)ccn2)cc1`: the results for the IC50 in assay [1], in assay [2] and in assay [3] were 32 nM, 4 nM and 1100 nM, respectively. Further, the EC50 in assay [4] is 990 nM.

On to `O=C(O)c1ccnc(-n2nccc2OCc2ccccc2)c1`, for which the IC50 was 550 nM in assay [1], 1 to 24 nM in assay [2] and 5 nM in assay [3]. Also, in assay [4], the concentration for a half-maximal effect (EC50) stood at 7000 nM.

By IC50 is commonly meant the point on the concentration scale where inhibition reaches its midpoint. Read a high IC50 as lower potency. One may read the EC50 as the concentration giving half of the maximal effect.
